Molecular target: Mitogen-activated protein kinase kinase kinase kinase 1 (Homo sapiens, UniProt Q92918)
Assay: Lantha Binding Assay
Experimental: For the binding assay, 4 μL 2×HPK1 and Eu-anti-GST antibody were added to each well of the assay plate using a Multidrop reagent dispenser. The solutions were incubated in a 23 C incubator for 1 h. […] The solutions were again incubated in a 23° C. incubator for 1 h.

Chain of Mitogen-activated protein kinase kinase kinase kinase 1 (Q92918 whole entry): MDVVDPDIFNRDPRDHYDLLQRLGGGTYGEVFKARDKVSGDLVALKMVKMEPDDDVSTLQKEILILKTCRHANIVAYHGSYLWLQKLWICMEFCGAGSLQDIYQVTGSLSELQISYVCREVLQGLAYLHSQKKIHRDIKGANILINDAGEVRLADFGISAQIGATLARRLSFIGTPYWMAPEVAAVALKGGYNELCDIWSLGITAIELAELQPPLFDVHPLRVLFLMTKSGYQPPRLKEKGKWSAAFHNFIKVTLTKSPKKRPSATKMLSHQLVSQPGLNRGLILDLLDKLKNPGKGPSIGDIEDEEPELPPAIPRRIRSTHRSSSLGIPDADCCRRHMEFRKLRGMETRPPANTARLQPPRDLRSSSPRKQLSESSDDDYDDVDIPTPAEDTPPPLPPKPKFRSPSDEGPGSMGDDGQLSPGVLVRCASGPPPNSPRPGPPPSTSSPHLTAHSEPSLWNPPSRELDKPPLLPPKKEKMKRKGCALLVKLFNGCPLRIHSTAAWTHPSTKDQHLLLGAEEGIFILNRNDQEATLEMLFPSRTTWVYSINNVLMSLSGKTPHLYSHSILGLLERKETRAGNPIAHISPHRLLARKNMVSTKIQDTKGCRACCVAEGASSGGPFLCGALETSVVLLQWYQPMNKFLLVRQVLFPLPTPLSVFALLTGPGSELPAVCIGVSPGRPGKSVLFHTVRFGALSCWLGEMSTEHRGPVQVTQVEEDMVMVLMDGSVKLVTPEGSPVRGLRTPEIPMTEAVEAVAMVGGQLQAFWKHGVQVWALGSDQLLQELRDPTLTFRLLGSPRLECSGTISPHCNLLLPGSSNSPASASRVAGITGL

Compound | Ki [nM]
CCn1cc(-c2cc(N)c3nnc(NC(=O)[C@@H]4C[C@@H]4F)cc3c2)cn1 [US20240368170, Compound 1a] | 84
CC(C)NC(=O)Nc1cc2cc(-c3cnn(C)c3)cc(N)c2nn1 [US20240368170, Compound 8] | 21
